Laboratory results published in patent US20250101062A1, “ANTIMICROBIAL PEPTIDES” (Board of Regents of the University of Nebraska, priority 2023, published 2025).
In brackets after ≈: the same amount, converted by molar mass. Where two headings read alike, the source gives them in different places. Where a SMILES comes first, the peptide text is derived from it.

Assays:
[1] = system: S. aureus USA300 LAC; assay: microbe, parasite or virus in culture; type: cell-based, Staphylococcus aureus; conditions: for Antimicrobial activity (MIC): MRSA in MHB
Summary of the method: (§1)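 Broth microdilution with twofold peptide dilutions, using exponential-phase bacteria at about 10^5 CFU/mL in MHB, incubated overnight at 37 °C and read at OD600. MIC, reported as a range, is the peptide concentration with no growth. Some tests used diluted MHB/TSB/LB, adjusted pH, or added NaCl or human serum.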

[2] = system: S. epidermidis 1457; assay: microbe, parasite or virus in culture; type: cell-based, Staphylococcus epidermidis
Summary of the method: (§2)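 Peptides twofold serially diluted against exponential-phase resistant clinical isolates at ~10^5 CFU/mL in MHB (also diluted MHB, TSB or LB in one protocol), CLSI-based broth microdilution. Incubated overnight at 37° C., OD 600 nm read; MIC taken as lowest concentration without growth, reported as ranges.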

[3] = system: K. pneumoniae E406-17; type: cell-based, Klebsiella pneumoniae
Protocol: The following resistant bacterial clinical strains were used in this study: S. aureus USA300 LAC, S. epidermidis 1457, E. coli E423-17, P. aeruginosa E411-17, K. pneumoniae E406-17, and A. baumannii B28-16. While the S. aureus USA300 strain is methicillin-resistant, most of the Gram-negative bacteria contain extended-spectrum beta-lactamase and are resistant to beta-lactam antibiotics. Peptide activity against bacteria was tested using an established lab protocol (Mishra, et al. (2017) Acta Biomater., 49:316-328). In brief, a peptide concentration gradient with twofold dilution was made in the 96-well polystyrene microplate at 10 μL per well. Bacteria were grown to the exponential phase (i.e., optical density at 600 nm≈0.5), diluted to ˜10^5 CFU/mL in different percentages of MHB, TSB, or LB, and partitioned into the 96-well microplate at 90 μL per well. […] They were diluted with autoclaved distilled water to obtain different percentages. The microplates were incubated at 37° C. overnight and read on a ChroMate™ 4300 microplate reader at 600 nm (GMI, Ramsey, MN). The peptide concentration in the wells without bacterial growth is the MIC. As is the convention, MIC values were represented as ranges.
(§3) Peptide activity against bacteria were tested using the CLSI standard procedure with minor modifications (Clinical and Laboratory Standards Institute (2018) Performance standards for antimicrobial susceptibility testing, 9th ed.; Mishra, et al. (2019) Proc. Natl. Acad. Sci., 116(27):13517-13522). In brief, a peptide concentration gradient with twofold dilution was made in the 96-well polystyrene microplate at 10 μL per well. Bacteria were grown to the exponential phase (i.e., optical density at 600 nm≈0.5), diluted to ˜10^5 CFU/mL in MHB, and partitioned into the 96-well microplate at 90 μL per well. The microplates were incubated at 37° C. overnight and read on a ChroMate® 4300 Microplate Reader at 600 nm (GMI, Ramsey, MN). The peptide concentration in the wells without bacterial growth is the minimal inhibitory concentration (MIC). As the convention, MIC values were represented as ranges.

[4] = system: A. baumannii B28-16; type: cell-based, Acinetobacter baumannii; conditions: B28-16
Summary of the method: as §2

[5] = system: P. aeruginosa E411-17; assay: microbe, parasite or virus in culture; type: cell-based, Pseudomonas aeruginosa; conditions: E411-17
Summary of the method: as §1

[6] = system: E. coli E416-17; type: cell-based, Escherichia coli
Protocol: as §3

[7] = system: human red blood cells; assay: Hemolytic assay; type: cell-based
Protocol: The hemolytic effects of peptides were evaluated using a method with minor modifications (Lakshmaiah Narayana, et al. (2021) ACS Infect. Dis., 7:1795-1808). Human red blood cells (hRBCs, UNMC Blood Bank) were washed (3×) with blood bank saline (isotonic solution 0.90% w/v, Fisher). Cells were diluted to 2% using the saline solution, and aliquots of 90 μL were added to a 96-well polystyrene microplate containing 10 μL of serially diluted peptide solutions. After incubation at 37° C. for 1 hour, plates were centrifuged at 500 g for 5 minutes. Aliquots of the supernatant were transferred to a 96-well microplate. The amount of hemoglobin released was measured at 545 nm by using a ChroMate™ microplate reader. […] HC50 is defined as the concentration of the peptide that caused 50% lysis.
The hemolytic effects of peptides were evaluated (Narayana, et al. (2020) Proc. Natl. Acad. Sci., 117(32):19446-9454). In brief, human red blood cells (UNMC Blood Bank) were washed (3×) and diluted to 2% using the saline solution. Aliquots of 90 μL were mixed with 10 μL of serially diluted peptide solutions. After incubation at 37° C. for 1 hour, plates were centrifuged at 500 g for 5 minutes and aliquots of the supernatant were transferred to a new 96-well microplate to measure the amount of hemoglobin released at 545 nm (relative to 1% Triton® X-100) using a ChroMate® Microplate Reader.

[8] = system: trypsin; conditions: peptide:protease 40:1, 37° C., 1 hour
Protocol: A solution of peptide/protease (40:1 molar ratio) was made in phosphate-buffered saline (PBS; pH 7.1, Gibco, NY) and incubated at 37° C. for 1 hour. As controls, peptides without proteases were also incubated in the same manner. Then, aliquots of 10 μL were transferred to a 96-well polystyrene microplate and mixed with the exponential-phase MRSA USA300 culture as performed in the antibacterial activity assays above.

[9] = target: T1, chymotrypsin (Bos taurus, UniProt P00766); type: in vitro ADME, mammalian
T1 construct: purchased Thermo Fisher Scientific

[10] = target: T2, pepsin (Sus scrofa, UniProt P00791); type: in vitro ADME, mammalian
T2 construct: purchased Thermo Fisher Scientific
T2 sequence (P00791 60-385): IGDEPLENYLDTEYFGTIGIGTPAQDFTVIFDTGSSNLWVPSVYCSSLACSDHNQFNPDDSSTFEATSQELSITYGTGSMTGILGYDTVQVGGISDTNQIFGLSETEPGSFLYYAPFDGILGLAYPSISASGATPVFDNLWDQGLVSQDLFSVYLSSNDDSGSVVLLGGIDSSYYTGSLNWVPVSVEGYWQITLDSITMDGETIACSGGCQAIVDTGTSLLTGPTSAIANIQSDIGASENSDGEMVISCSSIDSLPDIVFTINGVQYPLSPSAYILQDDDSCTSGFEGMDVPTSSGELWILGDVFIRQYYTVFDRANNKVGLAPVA

[11] = system: MRSA USA300; assay: Membrane permeabilization (propidium iodide); type: cell-based, Staphylococcus aureus; conditions: Example 1, 1×MIC
Protocol: The peptide ladder was prepared as described for the antibacterial assay with 10 μL of solution in a black COSTAR® 96-well plate. PI (MP Biomedicals, Solon, OH) was prepared in the dark and dissolved in dimethylsulfoxide (Thermo Fisher Scientific, NY) to 20 mM. This PI stock solution was further diluted to 1 mM with water, and 2 μL of 1 mM PI was added to each well. Exponential-phase MRSA USA300 was diluted to OD600 0.11 with TSB, and 88 μL was added to each well. The plate was incubated at 37° C. with continuous shaking in a FLUOstar® Omega (BMG LABTECH, NC) microplate reader. The sample was read every 5 minutes for 24 cycles with excitation and emission wavelengths of 584 and 620 nm, respectively.
Bacterial membrane permeation was conducted (Yeaman, et al. (1998) J. Clin. Invest., 101(1):178-87). In brief, the peptide ladder was prepared as described for the antibacterial assay with 10 μL in a black COSTAR 96-well plate. Propidium iodide (PI) (MP Biomedicals, Solon, OH) was prepared in the dark and dissolved in DMSO (Thermo Fisher Scientific, NY) to 20 mM. This PI stock solution was further diluted to 1 mM with water and 2 μL of 1 mM PI was added to each well. Exponential phase MRSA USA300 or P. aeruginosa E411-17 was diluted to OD600 0.11 with tryptic soy broth (TSB) and 88 μL was added to each well. The plate was incubated at 37° C. with continuous shaking in a FLUOstar® Omega (BMG LABTECH, NC) microplate reader. The sample was read every 5 minutes for 24 cycles with excitation and emission wavelengths at 584 nm and 620 nm, respectively.

[12] = system: E. coli E423-17; assay: Membrane permeabilization (propidium iodide); type: cell-based, Escherichia coli; conditions: Example 1, 1×MIC
[13] = Effect of MHB dilution on antibacterial activity of a panel of antibiotics; type: cell-based; conditions: MHB from 100 to 12.5%

Compound | Minimal inhibitory concentration (MIC) S. aureus USA300 [1] [µM] | Minimal inhibitory concentration (MIC) S. epidermidis 1457 [2] [µM] | Minimal inhibitory concentration (MIC) K. pneumoniae E406-17 [3] [µM] | Minimal inhibitory concentration (MIC) A. baumannii B28-16 [4] [µM] | Minimal inhibitory concentration (MIC) P. aeruginosa E411-17 [5] [µM] | Minimal inhibitory concentration (MIC) E. coli E416-17 [6] [µM] | HC10-based therapeutic index (HC10/MIC) [7] | Hemolysis (HC10), 10% hemolytic concentration [7] [µM] | Hemolysis (HC50), 50% hemolytic concentration [7] [µM] | other results
N=C(N)NCCC[C@H](NC(=O)[C@@H](N)CCCCN)C(=O)N[C@@H](Cc1c[nH]c2ccccc12)C(=O)N[C@@H](Cc1ccc(-c2ccccc2)cc1)C(=O)N[C@@H](CCC(N)=O)C(=O)N[C@@H](Cc1c[nH]c2ccccc12)C(=O)N[C@@H](Cc1ccc(-c2ccccc2)cc1)C(=O)N[C@@H](CCCCN)C(N)=O [Bip-KR-8+] (HELM PEPTIDE1{K.R.W.[O=C([C@H](Cc1ccc(-c2ccccc2)cc1)N[*:1])[*:2]].Q.W.[O=C([C@H](Cc1ccc(-c2ccccc2)cc1)N[*:1])[*:2]].K.[am]}$$$$V2.0) | 4 (≈ 5.51 µg/mL) | 4 (≈ 5.51 µg/mL) | >32 | 32 (≈ 44.1 µg/mL) | 16 to 32 | 16 (≈ 22 µg/mL) | ~1 | 15 | > 200 | 
CC(C)C[C@H](N)C(=O)N[C@@H](Cc1c[nH]c2ccccc12)C(=O)NCC(=O)N[C@@H](CCCNC(=N)N)C(=O)N[C@@H](Cc1ccccc1)C(=O)N[C@@H](Cc1ccccc1)C(=O)N[C@@H](CCCNC(=N)N)C(=O)N[C@@H](CCCCN)C(=O)N[C@@H](Cc1ccc(-c2ccccc2)cc1)C(=O)N[C@@H](CCCCN)C(N)=O [Bip-LL-10+] (HELM PEPTIDE1{L.W.G.R.F.F.R.K.[O=C([C@H](Cc1ccc(-c2ccccc2)cc1)N[*:1])[*:2]].K.[am]}$$$$V2.0) | 2 to 4 | 4 (≈ 5.84 µg/mL) | >32 | 8 (≈ 11.7 µg/mL) | 4 (≈ 5.84 µg/mL) | 4 (≈ 5.84 µg/mL) | 25 | 100 | > 200 | 
CC(C)C[C@H](NC(=O)[C@H](Cc1ccccc1)NC(=O)[C@H](CCCNC(=N)N)NC(=O)[C@H](CCCCN)NC(=O)[C@H](Cc1ccc(-c2ccccc2)cc1)NC(=O)[C@@H](N)CCCNC(=N)N)C(=O)N[C@@H](CCCNC(=N)N)C(=O)N[C@@H](CC(N)=O)C(=O)N[C@@H](Cc1ccc(-c2ccccc2)cc1)C(=O)N[C@H](C(N)=O)C(C)C [Bip-RIK-10+] (HELM PEPTIDE1{R.[O=C([C@H](Cc1ccc(-c2ccccc2)cc1)N[*:1])[*:2]].K.R.F.L.R.N.[O=C([C@H](Cc1ccc(-c2ccccc2)cc1)N[*:1])[*:2]].V.[am]}$$$$V2.0) | 1 (≈ 1.53 µg/mL) | 2 (≈ 3.07 µg/mL) | 2 to 4 | 2 to 4 | 2 (≈ 3.07 µg/mL) | 2 (≈ 3.07 µg/mL) | <4 |  | ~30 | Hemolysis (HC10), 10% hemolytic concentration ([7]; red cells of human): < 8 µM
N=C(N)NCCC[C@@H](N)C(=O)N[C@H](CCCNC(=N)N)C(=O)N[C@H](Cc1c[nH]c2ccccc12)C(=O)N[C@H](Cc1c[nH]c2ccccc12)C(=O)N[C@H](CCCNC(=N)N)C(=O)N[C@H](Cc1c[nH]c2ccccc12)C(=O)N[C@H](Cc1c[nH]c2ccccc12)C(=O)N[C@H](CCCNC(=N)N)C(N)=O [LL-37mini (D-form)] (HELM PEPTIDE1{[dR].[dR].[dW].[dW].[dR].[dW].[dW].[dR].[am]}$$$$V2.0) |  |  |  |  |  |  |  |  |  | activity after protease incubation [8]: remained active; activity after protease incubation [9]: remained active; activity after protease incubation [10]: retained antibacterial activity
Gentamicin |  |  |  |  |  |  |  |  |  | Antimicrobial activity (MIC) ([1]; 10% serum): 0.5 to 1 µM; Antimicrobial activity (MIC) ([1]; 20% serum): 0.5 µM; Antimicrobial activity (MIC) ([1]; NaCl (150 mM)): 1 µM; Antimicrobial activity (MIC) ([1]; pH 6.3): 1 to 2 µM; Antimicrobial activity (MIC) ([1]; pH 7.2): 0.5 µM; membrane permeabilization [11]: no fluorescence increase; membrane permeabilization [12]: did not permeate the E. coli membrane; change in MIC with dilution of MHB [13]: essentially no changes
